A word on the pIC50: it is the negative decadic logarithm of the IC50, by convention in mol/L. Higher therefore signals a small IC50.

The results in this text go back to ChEMBL document CHEMBL5604063, “ASAP - DENV-2 NS2B-NS3 protease fluorescence dose response” (2024).

Assay [1] has as its target T1, Genome polyprotein (dengue virus type 2, UniProt P29990). In kind it is functional, Thailand/16681/1984.
Assay [2] has as its target T1, Genome polyprotein. In kind it is functional, Thailand/16681/1984. This is another data set of the same source.

pIC50: −log10 of the molar value. Several values for one entry are separate records, joined by “and”; a condition that tells them apart may be missing. Identical values can stand only once.

T1 sequence (P29990 1346-1475 limits assumed): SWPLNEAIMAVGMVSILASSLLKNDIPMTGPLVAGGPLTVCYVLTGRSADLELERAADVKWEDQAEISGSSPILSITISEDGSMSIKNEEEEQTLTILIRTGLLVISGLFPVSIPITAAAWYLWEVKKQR
T1 sequence (P29990 1476-2093 limits assumed): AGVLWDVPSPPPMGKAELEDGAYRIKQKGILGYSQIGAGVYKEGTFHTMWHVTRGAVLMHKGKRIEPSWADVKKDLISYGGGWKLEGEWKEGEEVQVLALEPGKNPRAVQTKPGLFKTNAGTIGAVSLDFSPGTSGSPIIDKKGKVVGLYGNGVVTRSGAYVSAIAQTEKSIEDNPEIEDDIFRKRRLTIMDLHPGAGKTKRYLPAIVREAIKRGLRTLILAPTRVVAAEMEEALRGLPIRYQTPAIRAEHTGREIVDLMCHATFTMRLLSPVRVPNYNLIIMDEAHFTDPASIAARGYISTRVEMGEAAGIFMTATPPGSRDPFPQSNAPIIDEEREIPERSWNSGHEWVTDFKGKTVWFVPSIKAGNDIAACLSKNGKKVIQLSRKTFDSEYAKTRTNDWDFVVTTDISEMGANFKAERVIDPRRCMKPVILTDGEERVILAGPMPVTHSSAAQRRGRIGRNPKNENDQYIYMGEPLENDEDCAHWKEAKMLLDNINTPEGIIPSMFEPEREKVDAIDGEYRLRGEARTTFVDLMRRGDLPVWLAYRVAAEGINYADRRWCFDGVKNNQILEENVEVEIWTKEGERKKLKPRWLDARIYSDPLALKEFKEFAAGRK

For `O=C(Nc1ccc2c(c1)CNC2)c1cc(Cl)cc2cn[nH]c12`, the pIC50 against Genome polyprotein [1] and at Genome polyprotein [2] was below 4.00 in each case.
As to `Cc1c[nH]c2ncnc(C(=O)Nc3ccc4c(c3)CNC4)c12`, the pIC50 at Genome polyprotein [1] and against Genome polyprotein [2] was below 4.00 in each case.
On to `COc1nn(C)cc1-c1nc2c(C(=O)Nc3ccc4c(c3)CNC4)cc(Cl)cc2[nH]1`, for which the pIC50 at Genome polyprotein [1] and at Genome polyprotein [2] was below 4.00 throughout.
With `Nc1noc2cccc(C(=O)Nc3ccc4c(c3)CNC4)c12`, the negative-log IC50 (pIC50) at Genome polyprotein [1] and against Genome polyprotein [2] was below 4.00 throughout.
Turning to `O=C(Cc1ccc2ncsc2c1)Nc1ccc2c(c1)CNC2`, the pIC50 against Genome polyprotein [1] and against Genome polyprotein [2] was below 4.00 each time.
As for `Clc1cc([C@H](C#Cc2ccccc2)Nc2ccc3c(c2)CNC3)c2cn[nH]c2c1`, the pIC50 against Genome polyprotein [1] was below 4.00; against Genome polyprotein [2], 4.05.
For `Cc1nc2c(C(=O)Nc3ccc4c(c3)CNC4)cccc2[nH]1`, in that order: below 4.00 and below 4.00.
In the case of `O=C(Nc1ccc2c(c1)CNC2)c1cc(Br)cc2[nH]c(=O)[nH]c12`, the pIC50 on Genome polyprotein [1] was 4.17; against Genome polyprotein [2], 4.26.
Take `Cc1cc2c(C(=O)Nc3ccc4c(c3)CNC4)cccc2[nH]1`: the pIC50 at Genome polyprotein [1] and against Genome polyprotein [2] was below 4.00 in each case.
For the compound `O=C(Nc1ccc2c(c1)CNC2)c1ccc2sncc2c1`, the negative logarithm of the IC50 (pIC50) against Genome polyprotein [1] and at Genome polyprotein [2] was below 4.00 each time.
With `O=C(Nc1ccc2c(c1)CNC2)c1cc(Cl)ccc1-n1cncn1`, the pIC50 against Genome polyprotein [1] and against Genome polyprotein [2] was below 4.00 in each case.
On to `Clc1cc([C@@H]2C[C@H]2c2cccc(C3CCNCC3)c2)c2cn[nH]c2c1`, for which the pIC50 is 5.10 and 5.17 and 5.20 against Genome polyprotein [1]; 5.03 and 4.88 at Genome polyprotein [2].
For the compound `Cc1nc(C2CC2)[nH]c1C(=O)Nc1cc(CCCN)ccn1`, the pIC50 against Genome polyprotein [1] and against Genome polyprotein [2] was below 4.00 each time.
Turning to `CC(C)c1nccn1C[C@H]1CCCN1C(=O)Nc1ccc2c(c1)CNC2`, the pIC50 on Genome polyprotein [1] and against Genome polyprotein [2] was below 4.00 in each case.
With `O=C1COc2c(cccc2C(=O)Nc2ccc3c(c2)CNC3)N1`, the pIC50 against Genome polyprotein [1] and at Genome polyprotein [2] was below 4.00 each time.
On to `Cc1c(C(=O)Nc2cc(-c3cccnc3)ccn2)cc(C2CC2)n1C`, for which the negative logarithm of the IC50 (pIC50) against Genome polyprotein [1] is 5.04 and 5.08 and 5.20; at Genome polyprotein [2], 5.17 and 5.01.
`O=C(Nc1ccc2c(c1)CNC2)c1cccc2ccncc12`: the pIC50 at Genome polyprotein [1] and at Genome polyprotein [2] was below 4.00 in each case.
Take `O=C(Nc1ccc2c(c1)CNC2)c1cc(Cl)nc2[nH]ccc12`: the pIC50 against Genome polyprotein [1] and at Genome polyprotein [2] was below 4.00 throughout.
Take `Cc1nc2c(C(=O)Nc3ccc4c(c3)CNC4)cc(Cl)cc2[nH]1`: the pIC50 against Genome polyprotein [1] was below 4.00; at Genome polyprotein [2], 4.09.
On the same counts, the results for `N#C[C@H](Nc1ccc2c(c1)CNC2)c1cncc2ccccc12` are below 4.00 and below 4.00.
`O=C(Nc1ccc2c(c1)CNC2)c1ccc2nc(O)sc2c1`: the pIC50 at Genome polyprotein [1] and at Genome polyprotein [2] was below 4.00 each time.
`CC1CCN(CC[C@H]2CCCN2C(=O)Nc2ccc3c(c2)CNC3)CC1`: the pIC50 against Genome polyprotein [1] and on Genome polyprotein [2] was below 4.00 throughout.
Turning to `O=C(Nc1ccc2c(c1)CNC2)c1cc2ncccc2s1`, the negative-log IC50 (pIC50) against Genome polyprotein [1] and against Genome polyprotein [2] was below 4.00 throughout.
With `CC(C)(C)OC(=O)N1Cc2cc(NC(=O)c3cc(Cl)cc4[nH]ncc34)cc(Br)c2C1`, the pIC50 against Genome polyprotein [1] and at Genome polyprotein [2] was below 4.00 throughout.
In the case of `COC(=O)C(C)(C)NC(=O)[C@H](Nc1ccc2c(c1)CNC2)c1cc(Cl)cc(C2CC2)c1`, the pIC50 against Genome polyprotein [1] and on Genome polyprotein [2] was below 4.00 each time.
Turning to `O=C(Nc1ccc2c(c1)CNC2)c1cccc(O)c1`, the negative-log IC50 (pIC50) at Genome polyprotein [1] and against Genome polyprotein [2] was below 4.00 each time.
Take `O=C(Nc1ccc2c(c1)CNC2)c1nc(Cl)nc2[nH]ccc12`: the pIC50 at Genome polyprotein [1] and on Genome polyprotein [2] was below 4.00 in each case.
For `Cc1[nH]c2ccccc2c1[C@H]1CCN(C(=O)Nc2ccc3c(c2)CNC3)C1`, the pIC50 against Genome polyprotein [1] and on Genome polyprotein [2] was below 4.00 in each case.
As to `O=C(Nc1ccc2c(c1)CNC2)c1cc(C(F)(F)F)nc2[nH]ccc12`, the pIC50 against Genome polyprotein [1] and on Genome polyprotein [2] was below 4.00 each time.
For `CN(C)C(=O)N1Cc2ccc(NC(=O)c3cc(Cl)cc4[nH]ncc34)cc2C1`, the pIC50 at Genome polyprotein [1] and on Genome polyprotein [2] was below 4.00 each time.
In the case of `CC1=CC[C@H](c2cccc(-c3nn[nH]n3)c2)Nc2cc(Cl)ccc21`, the results for the pIC50 against Genome polyprotein [1] and against Genome polyprotein [2] were 4.16 and 4.47, respectively.
On the same counts, the results for `Cc1cc(C)n([C@H]2CCCN(C(=O)Nc3ccc4c(c3)CNC4)C2)n1` are below 4.00 and below 4.00.
For `O=C(Nc1ccc2c(c1)CNC2)c1ccc(-c2cncs2)cc1`, in that order: below 4.00 and below 4.00.
For `O=C(Nc1ccc2c(c1)CNC2)c1ncc(Cc2ccccc2)s1`, in that order: below 4.00 and below 4.00.
`CCOC(=O)c1ncoc1CNC(=O)[C@H](Nc1ccc2c(c1)CNC2)c1cc(Cl)cc(C2CC2)c1`: the pIC50 against Genome polyprotein [1] and at Genome polyprotein [2] was below 4.00 each time.
For the compound `O=C(NC1CCOCC1)[C@H](Nc1ccc2c(c1)CNC2)c1cc(Cl)cc2[nH]ncc12`, the pIC50 at Genome polyprotein [1] and against Genome polyprotein [2] was below 4.00 in each case.
On to `CC(C)(C)NC(=O)[C@H](Nc1ccc2c(c1)CNC2)c1cc(Cl)cc2[nH]ncc12`, for which the pIC50 against Genome polyprotein [1] and on Genome polyprotein [2] was below 4.00 throughout.
In the case of `O=C(Nc1ccc2c(c1)CNC2)c1cccc2sccc12`, the pIC50 against Genome polyprotein [1] and on Genome polyprotein [2] was below 4.00 in each case.
As for `O=C(Nc1ccc2c(c1)CNC2)N1CCC[C@H]1c1cc(C(F)(F)F)no1`, the negative logarithm of the IC50 (pIC50) against Genome polyprotein [1] and on Genome polyprotein [2] was below 4.00 each time.
With `O=C(Nc1ccc2c(c1)CNC2)c1ccc2[nH]cnc2c1`, the pIC50 on Genome polyprotein [1] and against Genome polyprotein [2] was below 4.00 each time.
`O=C(Nc1ccc2c(c1)CNC2)c1ccnc2[nH]ccc12`: the pIC50 against Genome polyprotein [1] and against Genome polyprotein [2] was below 4.00 each time.
Take `O=C(Nc1ccc2c(c1)CNC2)c1ccc2cc[nH]c2c1`: the negative logarithm of the IC50 (pIC50) against Genome polyprotein [1] and against Genome polyprotein [2] was below 4.00 throughout.
In the case of `Cc1cccc(-c2nc3c(C(=O)Nc4ccc5c(c4)CNC5)cc(Cl)cc3[nH]2)c1O`, the negative-log IC50 (pIC50) is 5.14 and 5.27 and 5.37 against Genome polyprotein [1]; 4.73 on Genome polyprotein [2].
Regarding `NCc1cc(C=C2CC(C(=O)O)C2)cc(NC(=O)c2cc(Cl)cc(NC(=O)OCc3ccccc3)c2)c1` (configuration not stated), the pIC50 on Genome polyprotein [1] and against Genome polyprotein [2] was below 4.00 each time.
As to `O=C(Nc1ccc2c(c1)CNC2)c1cccc2[nH]c(=O)[nH]c12`, the pIC50 was below 4.00 against Genome polyprotein [1] and 4.18 at Genome polyprotein [2].
For `CC[C@H]1CN(C(=O)Nc2ccc3c(c2)CNC3)C[C@@H]1c1ccc(OC)cc1`, in that order: below 4.00 and below 4.00.
For `CC(C)Nc1c(-c2cc(Cl)cc3[nH]ncc23)nc2ccc3c(n12)CNC3`, in that order: below 4.00 and below 4.00.
On the same counts, the results for `O=C(Nc1ccc2c(c1)CNC2)c1ccc(OC(F)(F)F)cc1` are below 4.00 and below 4.00.
Take `O=C(Nc1ccc2c(c1)CNC2)c1ncnc2[nH]ccc12`: the pIC50 on Genome polyprotein [1] and at Genome polyprotein [2] was below 4.00 in each case.
Take `O=C(Nc1ccc2c(c1)CNC2)c1cc(Cl)cc2[nH]c(-c3ncnn3C3CC3)nc12`: the pIC50 against Genome polyprotein [1] and on Genome polyprotein [2] was below 4.00 each time.
For the compound `O=C(Nc1ccc2c(c1)CNC2)c1c(Cl)ccc2c1OCO2`, the pIC50 against Genome polyprotein [1] and against Genome polyprotein [2] was below 4.00 in each case.
As for `CC(C)CNC(=O)[C@H](Nc1ccc2c(c1)CNC2)c1cc(Cl)cc2[nH]ncc12`, the pIC50 against Genome polyprotein [1] and at Genome polyprotein [2] was below 4.00 in each case.
`CC(=O)Nc1cccc(C(=O)Nc2ccc3c(c2)CNC3)n1`: the pIC50 against Genome polyprotein [1] and against Genome polyprotein [2] was below 4.00 throughout.
Take `NCCCc1ccnc(NC(=O)c2cc(C3CC3)[nH]n2)c1`: the negative-log IC50 (pIC50) against Genome polyprotein [1] and at Genome polyprotein [2] was below 4.00 each time.
As to `NCc1cc(CC(=O)O)cc([C@H]2C[C@@H]2c2cc(Cl)cc(NC(=O)OCc3ccccc3)c2)c1`, the negative logarithm of the IC50 (pIC50) against Genome polyprotein [1] and on Genome polyprotein [2] was below 4.00 each time.
Regarding `CCOCCNC(=O)[C@H](Nc1ccc2c(c1)CNC2)c1cc(Cl)cc2[nH]ncc12`, the pIC50 against Genome polyprotein [1] and against Genome polyprotein [2] was below 4.00 in each case.
Turning to `O=C(Nc1ccc2c(c1)CNC2)c1cccc2ncccc12`, the pIC50 at Genome polyprotein [1] and against Genome polyprotein [2] was below 4.00 throughout.
For the compound `O=C(Nc1ccc2c(c1)CNC2)N1CCC[C@H](Cc2nccs2)C1`, the pIC50 against Genome polyprotein [1] and against Genome polyprotein [2] was below 4.00 in each case.
In the case of `CCCNC(=O)[C@H](Nc1ccc2c(c1)CNC2)c1cc(Cl)cc2[nH]ncc12`, the negative-log IC50 (pIC50) against Genome polyprotein [1] and on Genome polyprotein [2] was below 4.00 throughout.
In the case of `CC1(C)C(=O)Nc2ccc(C(=O)Nc3ccc4c(c3)CNC4)cc21`, the pIC50 against Genome polyprotein [1] and at Genome polyprotein [2] was below 4.00 in each case.
With `O=C(Nc1ccc2c(c1)CNC2)c1ccc2ncccc2c1`, the pIC50 against Genome polyprotein [1] and against Genome polyprotein [2] was below 4.00 throughout.
On to `Clc1cccc([C@H](C#Cc2ccccc2)Nc2ccc3c(c2)CNC3)c1`, for which the pIC50 against Genome polyprotein [1] and on Genome polyprotein [2] was below 4.00 each time.
On to `O=C1Cc2c(cccc2C(=O)Nc2ccc3c(c2)CNCCC3)N1`, for which the negative logarithm of the IC50 (pIC50) is below 4.00 on Genome polyprotein [1] and 4.05 against Genome polyprotein [2].
`CNC(=O)[C@H](Nc1ccc2c(c1)C(=O)OC2)c1cc(Cl)cc2[nH]ncc12`: the pIC50 against Genome polyprotein [1] and against Genome polyprotein [2] was below 4.00 throughout.
On to `O=C(Nc1ccc2c(c1)CNC2)c1cc(Cl)cc2[nH]c(C3(n4ccnn4)CC3)nc12`, for which the pIC50 on Genome polyprotein [1] and at Genome polyprotein [2] was below 4.00 in each case.
In the case of `O=C(Nc1ccc2c(c1)CNC2)c1cccc2[nH]cnc12`, the pIC50 on Genome polyprotein [1] and at Genome polyprotein [2] was below 4.00 throughout.
For the compound `C[C@](C#N)(Nc1ccc2c(c1)CNC2)c1cccc(Cl)c1`, the negative-log IC50 (pIC50) against Genome polyprotein [1] and against Genome polyprotein [2] was below 4.00 throughout.
Take `O=C(Nc1ccc2c(c1)CNC2)c1ccc2[nH]ccc2c1`: the pIC50 on Genome polyprotein [1] and on Genome polyprotein [2] was below 4.00 throughout.
`Cn1cc2c(C(=O)Nc3ccc4c(c3)CNC4)cccc2n1`: the pIC50 against Genome polyprotein [1] and against Genome polyprotein [2] was below 4.00 in each case.
Take `Cc1csc(CO[C@H]2CCN(C(=O)Nc3ccc4c(c3)CNC4)C2)n1`: the pIC50 on Genome polyprotein [1] and against Genome polyprotein [2] was below 4.00 each time.
On to `Clc1cc([C@H](C#CC2CC2)Nc2ccc3c(c2)CNC3)c2cn[nH]c2c1`, for which the negative-log IC50 (pIC50) on Genome polyprotein [1] and on Genome polyprotein [2] was below 4.00 throughout.
